# Counter-ions that a name gives are not always drawn.
# Tested on: fibrinolytic activity
# Assay: not given
# Conditions: prior art; cited from earlier work
row,Compound,fibrinolytic activity in vivo
1,CNC[C@H](O)c1ccc(O)c(O)c1 [epinephrine],Fibrinolytic activity in vivo can be induced
2,CCCCC1C(=O)N(c2ccccc2)N(c2ccccc2)C1=O [phenylbutazone],Fibrinolytic activity in vivo can be induced
3,O=C(O)c1cccnc1 [nicotinic acid],Fibrinolytic activity in vivo can be induced
4,NCCc1c[nH]cn1 [histamine],Fibrinolytic activity in vivo can be induced
5,NCCc1c[nH]c2ccc(O)cc12 [serotonin],Fibrinolytic activity in vivo can be induced
6,CCN(CC)CCOC(=O)c1ccc(N)cc1 [procaine],Fibrinolytic activity in vivo can be induced

# Tested on: whole blood clot
# Assay: whole blood clot lysis method (fibrinolytic activity), blood from rats given compound intraperitoneally
# Format: in vivo
# Conditions: Rattus norvegicus, ip, 4 h, intraperitoneal, blood diluted 1:10, clotted with thrombin, 37° C, four hours, read-out: ED50 (dose which causes lysis of 50% of the clot)
# Experimental: Certain representative compounds within the scope of the present invention have been tested for fibrinolytic activity by the whole blood clot lysis method, as modified from the procedure of Billimoria et al.^1 In this method, blood from rats given a fibrinolytic compound intraperitoneally is taken and diluted 1:10. A standard amount is clotted with thrombin, incubated at 37° C for four hours, and the amount of clot that has lysed is determined. […] These ED50 values for the various compounds tested are set forth in the following table, each of the compounds being identified by name and by the number of the ensuing example in which its synthesis is described. […] ^1 Billimoria, […]., James, […]., Lancet II, 471 (1959)
row,Compound,ED50
1,"COc1cc2c(cc1OC)[C@H](CCCC[C@H]1NCCc3cc(OC)c(OC)cc31)NCC2 [bisobrin dihydrochloride, 1,1'-tetramethylenebis[1,2,3,4-tetrahydro-6,7-dimethoxyisoquinoline], reference compound]",0.5 mg/kg
2,"COc1ccc2c(c1)CCNC2CCCCC(CCC1NCCc2cc(OC)ccc21)CCC1NCCc2cc(OC)ccc21 (centres unmarked) [Example 10.1, 1,1'-{3-[2-(1,2,3,4-tetrahydro-6-methoxy-1-isoquinolinyl)ethyl]heptamethylene}bis[1,2,3,4-tetrahydro-6-methoxyisoquinoline]]",0.5 mg/kg
3,"COc1cc2c(cc1OC)C(CCCC(CCCC(CCCC1NCCc3cc(OC)c(OC)cc31)C1NCCc3cc(OC)c(OC)cc31)C1NCCc3cc(OC)c(OC)cc31)NCC2.Cl.Cl.Cl.Cl.O.O.O.O (centres unmarked) [Example 2.1, 1,1',1"",1'""-(1,4,8,11-Undecanetetrayl)tetrakis[1,2,3,4-tetrahydro-6,7-dimethoxyisoquinoline] tetrahydrochloride tetrahydrate]",0.03 mg/kg
4,"COc1cc2c(cc1OC)C(CCCCC(SCC1NCCc3cc(OC)c(OC)cc31)C1NCCc3cc(OC)c(OC)cc31)NCC2 (centres unmarked) [Example 6.1, 1,1'-[1-[(1,2,3,4-tetrahydro-6,7-dimethoxy-1-isoquinolinylmethyl)thio]pentamethylene]bis[1,2,3,4-tetrahydro-6,7-dimethoxyisoquinoline]]",< 0.6 mg/kg
5,"COc1cc2c(cc1OC)C(CCCCC(CCCCC(CCCCC1NCCc3cc(OC)c(OC)cc31)C1NCCc3cc(OC)c(OC)cc31)C1NCCc3cc(OC)c(OC)cc31)NCC2 (centres unmarked) [Example 15.1, 1,1',1"",1'""-(1,5,10,14-tetradecanetetrayl)tetrakis[1,2,3,4-tetrahydro-6,7-dimethoxyisoquinoline]]",0.04 mg/kg
6,"COc1cc2c(cc1OC)C(CCCC(CCCC1NCCc3cc(OC)c(OC)cc31)C1NCCc3cc(OC)c(OC)cc31)NCC2.Cl.Cl.Cl.O.O.O (centres unmarked) [Example 19.1, 1,1',1""-(1,4,7-HEPTANETRIYL)TRIS[1,2,3,4-TETRAHYDRO-6,7-DIMETHOXYISOQUINOLINE] TRIHYDROCHLORIDE TRIHYDRATE]",0.03 mg/kg
7,"COc1cc2c(cc1OC)C(CCOCC(COCCC1NCCc3cc(OC)c(OC)cc31)OCCC1NCCc3cc(OC)c(OC)cc31)NCC2.Cl.Cl.Cl (centres unmarked) [Example 17.1, 1,1',1""-[1,2,3-PROPANETRIYLTRI-(OXYETHYLENE)]TRIS[1,2,3,4-TETRAHYDRO-6,7-DIMETHOXYISOQUINOLINE] TRIHYDROCHLORIDE]",0.8 mg/kg
8,"COc1cc2c(cc1OC)C(CCN(CCC1NCCc3cc(OC)c(OC)cc31)CCC1NCCc3cc(OC)c(OC)cc31)NCC2 (centres unmarked) [Example 17.3, 1,1',1""-(nitrilotriethylene)tris[1,2,3,4-tetrahydro-6,7-dimethoxyisoquinoline]]",0.7 mg/kg
9,"COc1cc2c(cc1OC)C(CCC(CCC(CCC1NCCc3cc(OC)c(OC)cc31)CCC1NCCc3cc(OC)c(OC)cc31)CCC1NCCc3cc(OC)c(OC)cc31)NCC2.Cl.Cl.Cl.Cl.O.O.O.O (centres unmarked) [Example 5.1, 1,1'-{3,6-bis[2-(1,2,3,4-tetrahydro-6,7-dimethoxy-1-isoquinolinyl)ethyl]-octamethylene}bis[1,2,3,4-tetrahydro-6,7-dimethoxyisoquinoline] tetrahydrochloride tetrahydrate]",0.06 mg/kg
10,"COc1cc2c(cc1OC)C(CCC(CCC(CC1NCCc3cc(OC)c(OC)cc31)c1ccccc1)CCC1NCCc3cc(OC)c(OC)cc31)NCC2 (centres unmarked) [Example 7.1, 1,1'-{2-phenyl-5-[2-(1,2,3,4-tetrahydro-6,7-dimethoxy-1-isoquinolinyl)ethyl]heptamethylene}bis[1,2,3,4-tetrahydro-6,7-dimethoxyisoquinoline]]",< 0.1 mg/kg
11,"COc1cc2c(cc1OC)C(CCC(CCC1NCCc3cc(OC)c(OC)cc31)CCC(C)(C)CC1NCCc3cc(OC)c(OC)cc31)NCC2 (centres unmarked) [Example 8.1, 1,1'-{2,2-dimethyl-5-[2-(1,2,3,4-tetrahydro-6,7-dimethoxy-1-isoquinolinyl)ethyl]heptamethylene}bis[1,2,3,4-tetrahydro-6,7-dimethoxyisoquinoline]]",< 0.4 mg/kg
12,"COc1cc2c(cc1OC)C(CCC(CCC1NCCc3cc(OC)c(OC)cc31)(CCC1NCCc3cc(OC)c(OC)cc31)[N+](=O)[O-])NCC2 (centres unmarked) [Example 18.1, 1,1'-{3-nitro-3-[2-(1,2,3,4-tetrahydro-6,7-dimethoxy-1-isoquinolinyl)ethyl]pentamethylene}bis[1,2,3,4-tetrahydro-6,7-dimethoxyisoquinoline]]",< 0.6 mg/kg
13,"COc1cc2c(cc1OC)C(CCCC(CCCCC(CCCC1NCCc3cc(OC)c(OC)cc31)C1NCCc3cc(OC)c(OC)cc31)C1NCCc3cc(OC)c(OC)cc31)NCC2 (centres unmarked) [Example 16.1, 1,1',1"",1'""-(1,4,9,12-dodecanetetrayl)tetrakis[1,2,3,4-tetrahydro-6,7-dimethoxyisoquinoline]]",0.03 mg/kg

# Tested on: ADP-induced platelet aggregation and experimental thrombosis
# Assay: not given
# Conditions: literature; cited from earlier work
row,Compound,effect against ADP-induced platelet aggregation and experimental thrombosis
1,"OCCN(CCO)c1nc(N2CCCCC2)c2nc(N(CCO)CCO)nc(N3CCCCC3)c2n1 [dipyridamole, 2,2',2"",2'""-[(4,8-dipiperidinopyrimido[5,4-d]pyrimidine-2,6-diyl)dinitrilo]tetraethanol, reference compound]",generally recognized as being effective against ADP-induced platelet aggregation and experimental thrombosis

# Tested on: ADP-induced platelet aggregation
# Assay: inhibition of ADP-induced platelet aggregation in platelet rich plasma
# Format: cell-based
# Conditions: 5 min; human platelet rich plasma, 37° C, five minutes incubation prior to ADP; read-out: ED50 (amount which reduces platelet aggregation by 50%)
# Experimental: Another selection of representative compounds within the scope of the present invention, including some listed in the previous table, have been tested for their ability to inhibit platelet aggregation. Citrated whole blood from human volunteers, who had not taken any medicine for the previous week, was centrifuged to obtain platelet rich plasma. On addition of ADP (adenosine diphosphate) to this platelet rich plasma, incubated at 37° C with constant stirring, in an aggregometer, optical density changes can be observed which are caused by platelet aggregation. Thus, the extent of ADP-induced platelet aggregation is determined for each sample of blood used. Compounds to be tested were incubated for five minutes prior to the addition of ADP. The ED50 of a compound is that amount, in γ/ml, which reduces platelet aggregation by 50% under the above conditions.
row,IC50,Compound
1,< 40 µg/mL,"COc1cc2c(cc1OC)C(CCOCC(COCCC1=NCCc3cc(OC)c(OC)cc31)OCCC1=NCCc3cc(OC)c(OC)cc31)=NCC2 [Example 17.1a, 1,1',1""-[1,2,3-propanetriyltri(oxyethylene)]tris[3,4-dihydro-6,7-dimethoxyisoquinoline]]"
2,27 µg/mL,"COc1cc2c(cc1OC)C(CCCCC(CCCCC(CCCCC1=NCCc3cc(OC)c(OC)cc31)C1=NCCc3cc(OC)c(OC)cc31)C1=NCCc3cc(OC)c(OC)cc31)=NCC2.Cl.Cl.Cl.Cl.O.O.O.O (centres unmarked) [Example 15.1a, 1,1',1"",1'""-(1,5,10,14-tetradecanetetrayl)tetrakis[3,4-dihydro-6,7-dimethoxyisoquinoline] tetrahydrochloride tetrahydrate]"
3,270 µg/mL,"OCCN(CCO)c1nc(N2CCCCC2)c2nc(N(CCO)CCO)nc(N3CCCCC3)c2n1 [dipyridamole, 2,2',2"",2'""-[(4,8-dipiperidinopyrimido[5,4-d]pyrimidine-2,6-diyl)dinitrilo]tetraethanol, reference compound]"
4,6 µg/mL,"COc1cc2c(cc1OC)C(CCC(CCC1=NCCc3cc(OC)c(OC)cc31)(CCC1=NCCc3cc(OC)c(OC)cc31)[N+](=O)[O-])=NCC2.Cl.Cl.Cl [Example 18.1a, 1,1'-{3-[2-(3,4-dihydro-6,7-dimethoxy-1-isoquinolinyl)ethyl] -3-nitropentamethylene}bis[3,4-dihydro-6,7-dimethoxyisoquinoline] trihydrochloride]"
5,< 40 µg/mL,"COc1cc2c(cc1OC)C(CCCC(CCCC1=NCCc3cc(OC)c(OC)cc31)C1=NCCc3cc(OC)c(OC)cc31)=NCC2 [Example 19.1a, 1,1',1""-(1,4,7-heptanetriyl)tris[3,4-dihydro-6,7-dimethoxyisoquinoline]]"
6,9 µg/mL,"COc1cc2c(cc1OC)C(CCC(CCC1NCCc3cc(OC)c(OC)cc31)(CCC1NCCc3cc(OC)c(OC)cc31)[N+](=O)[O-])NCC2 (centres unmarked) [Example 18.1, 1,1'-{3-nitro-3-[2-(1,2,3,4-tetrahydro-6,7-dimethoxy-1-isoquinolinyl)ethyl]pentamethylene}bis[1,2,3,4-tetrahydro-6,7-dimethoxyisoquinoline]]"
7,< 40 µg/mL,"COc1cc2c(cc1OC)C(CCCCC(CCC1=NCCc3cc(OC)c(OC)cc31)CCC1=NCCc3cc(OC)c(OC)cc31)=NCC2.Cl.Cl.Cl.O.O.O [Example 1.1a, 1,1'-{3-[2-(3,4-dihydro-6,7-dimethoxy-1-isoquinolinyl)ethyl]heptamethylene}bis[3,4-dihydro-6,7-dimethoxyisoquinoline] trihydrochloride trihydrate]"
8,< 40 µg/mL,"COc1cc2c(cc1OC)C(CCC(CCC1=NCCc3cc(OC)c(OC)cc31)CCC(CC1=NCCc3cc(OC)c(OC)cc31)c1ccccc1)=NCC2.Cl.Cl.Cl.O.O.O (centres unmarked) [Example 7.1a, 1,1'-{5-[2-(3,4-dihydro-6,7-dimethoxy-1-isoquinolinyl)ethyl]-2-phenylheptamethylene}bis[3,4-dihydro-6,7-dimethoxyisoquinoline] trihydrochloride trihydrate]"

# Tested on: not given
# Assay: not given
# Conditions: prior art; cited from earlier work
row,Compound,side effects in thrombolysis
1,"Streptokinase: a streptococcal protein, has been used for thrombolysis",side effects of pyrogenicity and anaphylactic reactions

# — patent US4107165A, “Tris[tetrahydroisoquinoline] compounds” (Endo Laboratories, priority 1976, dated 1978)
